PubChem BioAssay AID1963849 (Molecular Pharmacology Branch, DTP, NCI, 2024)

Test system: 299254-011-R-J1-PDC complex spheroid viability
Test: Anticancer human tumor 299254-011-R-J1-PDC patient-derived melanoma cell line growth inhibition [POLQ]
Conditions: for IC50: curve of first compound; for viability, T/C: stronger effect = lower value
Method: Multicellular complex tumor spheroid response to Polymerase (POL) inhibitors (novobiocin, ART-558, RP6685) in combination with a variety of drugs and investigational agents in selected tumor cell lines
The POL inhibitors (novobiocin, ART-558, and RP6685) were evaluated both individually and in combination with standard of care and investigational anticancer small molecules within a complex spheroid model of solid tumors. . Complex spheroids include a stromal component modeled by human endothelial cells (HUVEC) and fibroblasts modeled by human mesenchymal stem cells (MSCs). The concentration ranges selected for each drug and investigational agent were based upon clinically achievable concentrations if the clinical Cmax of the agent was known.
Compounds. The drugs and investigational agents: novobiocin (NSC847541), ART-558 (NSC835418), RP-6685 (NSC848927), peposertib (NSC802822), ceralasertib (NSC780249), elimusertib (NSC800525), camonsertib (NSC841442), AZD-1390 (NSC803789), olaparib (NSC753686), talazoparib (NSC767125), rucaparib (NSC756644), sotorasib (NSC818433), MRTX-1133 (NSC836407), SN-38 (NSC673596), topotecan (NSC609699), epotoside (NSC141540), doxorubicin (NSC123127), gemcitabine (NSC613327), 5-fluorouracil (NSC19893), paclitaxel (NSC125973), vemurafenib (NSC761431), MSA-2 (NSC828583), SN-011 (NSC837082), adavosertib (NSC754352), prexasertib (NSC758257), carboplatin (NSC241240) and oxaliplatin (NSC266046), were obtained from the National Cancer Institute (NCI) Developmental Therapeutics Program Chemical Repository (21). The FDA-approved anticancer drug set is available from the Developmental Therapeutics Program at https://dtp.cancer.gov/organization/dscb/obtaining/. […] The stock solutions were prepared in dimethyl sulfoxide (DMSO, Sigma-Aldrich, St. Louis, MO, cat. D2650), except for the platinum compounds which were prepared in saline (Quality Biological, Gaithersburg, MD, cat. 114-055-101), at 800-fold the tested concentration and stored at -70 degrees C prior to their use. All drugs and investigational agents were tested over a range starting from a high concentration at or near the clinical Cmax and decreasing in half-log increments. If the clinical Cmax for an agent had not been determined, the highest concentration tested was 10 microM, except for SN-38, which was tested at a high concentration of 1 microM.
Cell Culture. All cells were maintained in an incubator at 37 degrees C and 5% CO2 with 95% humidity. The PDC lines were cultured according to standard operating procedures established by the NCI PDMR (https://pdmr.cancer.gov). Table 3 of the manuscript, lists the cell lines along with the number of the three cell types plated to form the mct-spheroids and media for tumor cell growth. After thawing, all PDC lines, except 997537-175-T-J1-PDC and 415267-285-R-J2-PDC, were cultured in Matrigel-coated flasks prepared with a working solution of 1X Ham's F-12 nutrient mix, without supplementation (Thermo Fisher Scientific, cat. 11765054), 100 U/mL penicillin-streptomycin (Thermo Fisher Scientific, cat. 15140122), and 2.5% Matrigel (Corning Inc., Corning, NY, cat. 354248) for the first three passages. The two PDC lines 997537-175-T-J1-PDC and 415267-285-R-J2-PDC were cultured on uncoated flasks. The 857933-349-R-J2-PDC line was cultured in 6C/Colon 1B media containing advanced DMEM/F-12 (Thermo Fisher Scientific, cat. 12634028), 10 mM HEPES (Thermo Fisher Scientific, cat. 15630080), 1X GlutaMAX supplement (Thermo Fisher Scientific, cat. 35050061), 0.1 mg/mL primocin (InvivoGen, San Diego, CA, cat. ant-pm-2), 10% defined fetal bovine serum, heat inactivated (HyClone Laboratories Inc., Logan, UT, cat. SH30070.03HI), 50% L-WRN conditioned media (ATCC, cat. CRL-3276), 1.25 mM N-Acetyl-L-cysteine (Sigma-Aldrich, cat. A9165), 10 mM nicotinamide (Sigma-Aldrich, cat. N0636), 1X B-27 supplement (Thermo Fisher Scientific, cat. 17504044), 1X N-2 supplement (Thermo Fisher Scientific, cat. […]

[1] = second compound 0.0316 µM, first compound 0.0316 µM
[2] = second compound 0.0316 µM, first compound 0.1 µM
[3] = second compound 0.0316 µM, first compound 0.316 µM
[4] = second compound 0.0316 µM, first compound 1 µM
[5] = second compound 0.1 µM, first compound 0.0316 µM
[6] = second compound 0.1 µM, first compound 0.1 µM
[7] = second compound 0.1 µM, first compound 0.316 µM
[8] = second compound 0.1 µM, first compound 1 µM
[9] = second compound 0.316 µM, first compound 0.0316 µM
[10] = second compound 0.316 µM, first compound 0.1 µM
[11] = second compound 0.316 µM, first compound 0.316 µM
[12] = second compound 0.316 µM, first compound 1 µM
[13] = second compound 1 µM, first compound 0.0316 µM
[14] = second compound 1 µM, first compound 0.1 µM
[15] = second compound 1 µM, first compound 0.316 µM
[16] = second compound 1 µM, first compound 1 µM
[17] = second compound 3.16 µM, first compound 0.0316 µM
[18] = second compound 3.16 µM, first compound 0.1 µM
[19] = second compound 3.16 µM, first compound 0.316 µM
[20] = second compound 3.16 µM, first compound 1 µM
[21] = second compound 10 µM, first compound 0.0316 µM
[22] = second compound 10 µM, first compound 0.1 µM
[23] = second compound 10 µM, first compound 0.316 µM
[24] = second compound 10 µM, first compound 1 µM
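Further: spheroids exposed to drugs for one week before measurement.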
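Wherever viability, T/C is given: percent viability relative to DMSO vehicle control taken as 100%.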

Question: Which IC50 (second compound 0.0316 µM) does the source give for `O=c1[nH]cc(F)c(=O)[nH]1` + Cc1cccc(N(C)C(=O)C2C(O)CCN2c2nc(C)cc(C(F)(F)F)c2C#N)c1 here?
Answer: Its IC50 is > 10 µM.

Question: What about the IC50 (second compound 0.1 µM) of the same compound?
Answer: The IC50 was > 10 µM.

Question: And the IC50 (second compound 0.316 µM)?
Answer: The IC50 was > 10 µM.

Question: What about the IC50 (second compound 1 µM) of the same compound?
Answer: Its IC50 is > 10 µM.

Question: And the IC50 (second compound 3.16 µM)?
Answer: Its IC50 is > 10 µM.

Question: And the IC50 (second compound 10 µM)?
Answer: Its IC50 is > 10 µM.

Question: And the viability, T/C [1]?
Answer: Its viability, T/C is 115%.

Question: What about the viability, T/C [2] of the same compound?
Answer: Its viability, T/C is 88%.

Question: What about the viability, T/C [3] of the same compound?
Answer: The viability, T/C was 105%.

Question: And the viability, T/C [4]?
Answer: The viability, T/C was 97.3%.

Question: What about the viability, T/C (second compound 0.0316 µM, first compound 3.16 µM) of the same compound?
Answer: Its viability, T/C is 76.1%.

Question: And the viability, T/C (second compound 0.0316 µM, first compound 10 µM)?
Answer: Its viability, T/C is 73%.

Question: And the viability, T/C [5]?
Answer: Its viability, T/C is 105%.

Question: And the viability, T/C [6]?
Answer: The viability, T/C was 92.4%.

Question: What about the viability, T/C [7] of the same compound?
Answer: The viability, T/C was 96%.

Question: And the viability, T/C [8]?
Answer: Its viability, T/C is 94.8%.

Question: What about the viability, T/C (second compound 0.1 µM, first compound 3.16 µM) of the same compound?
Answer: The viability, T/C was 88.1%.

Question: And the viability, T/C (second compound 0.1 µM, first compound 10 µM)?
Answer: The viability, T/C was 81.2%.

Question: And the viability, T/C [9]?
Answer: The viability, T/C was 111%.

Question: What about the viability, T/C [10] of the same compound?
Answer: Its viability, T/C is 118%.

Question: And the viability, T/C [11]?
Answer: The viability, T/C was 106%.

Question: What about the viability, T/C [12] of the same compound?
Answer: The viability, T/C was 99.3%.

Question: What about the viability, T/C (second compound 0.316 µM, first compound 3.16 µM) of the same compound?
Answer: Its viability, T/C is 98.9%.

Question: And the viability, T/C (second compound 0.316 µM, first compound 10 µM)?
Answer: The viability, T/C was 67.6%.

Question: And the viability, T/C [13]?
Answer: Its viability, T/C is 112%.

Question: And the viability, T/C [14]?
Answer: The viability, T/C was 99.7%.

Question: And the viability, T/C [15]?
Answer: The viability, T/C was 98.2%.

Question: And the viability, T/C [16]?
Answer: Its viability, T/C is 92.3%.

Question: And the viability, T/C (second compound 1 µM, first compound 3.16 µM)?
Answer: Its viability, T/C is 88%.

Question: And the viability, T/C (second compound 1 µM, first compound 10 µM)?
Answer: The viability, T/C was 68.1%.

Question: What about the viability, T/C [17] of the same compound?
Answer: Its viability, T/C is 114%.

Question: And the viability, T/C [18]?
Answer: Its viability, T/C is 103%.

Question: What about the viability, T/C [19] of the same compound?
Answer: Its viability, T/C is 89.1%.

Question: What about the viability, T/C [20] of the same compound?
Answer: Its viability, T/C is 114%.

Question: And the viability, T/C (second compound 3.16 µM, first compound 3.16 µM)?
Answer: The viability, T/C was 90.3%.

Question: What about the viability, T/C (second compound 3.16 µM, first compound 10 µM) of the same compound?
Answer: The viability, T/C was 65.2%.

Question: And the viability, T/C [21]?
Answer: The viability, T/C was 103%.

Question: What about the viability, T/C [22] of the same compound?
Answer: Its viability, T/C is 98%.

Question: And the viability, T/C [23]?
Answer: Its viability, T/C is 93.4%.

Question: And the viability, T/C [24]?
Answer: The viability, T/C was 87%.

Question: What about the viability, T/C (second compound 10 µM, first compound 3.16 µM) of the same compound?
Answer: Its viability, T/C is 80.9%.

Question: What about the viability, T/C (second compound 10 µM, first compound 10 µM) of the same compound?
Answer: Its viability, T/C is 69.3%.

Question: Which results are given for `CCc1c2c(nc3ccc(O)cc13)-c1cc3c(c(=O)n1C2)COC(=O)[C@]3(O)CC` + Nc1ccc(C#CCN(C(=O)Cc2ncc(C(F)(F)F)cc2C(F)(F)F)c2ccc(F)cc2)nn1?
Answer: IC50 (second compound 0.0316 µM): > 1 µM; IC50 (second compound 0.1 µM): > 1 µM; IC50 (second compound 0.316 µM): > 1 µM; IC50 (second compound 1 µM): > 1 µM; IC50 (second compound 3.16 µM): > 1 µM; IC50 (second compound 10 µM): > 1 µM; viability, T/C (second compound 0.0316 µM, first compound 0.00316 µM): 94.8%; viability, T/C (second compound 0.0316 µM, first compound 0.01 µM): 85.3%; viability, T/C [1]: 81.9%; viability, T/C [2]: 75.5%; viability, T/C [3]: 76.8%; viability, T/C [4]: 63.9%; viability, T/C (second compound 0.1 µM, first compound 0.00316 µM): 89.7%; viability, T/C (second compound 0.1 µM, first compound 0.01 µM): 85.5%; viability, T/C [5]: 72.2%; viability, T/C [6]: 77.2%; viability, T/C [7]: 68.7%; viability, T/C [8]: 57.9%; viability, T/C (second compound 0.316 µM, first compound 0.00316 µM): 108%; viability, T/C (second compound 0.316 µM, first compound 0.01 µM): 81.7%; viability, T/C [9]: 69.5%; viability, T/C [10]: 79%; viability, T/C [11]: 71%; viability, T/C [12]: 58.5%; viability, T/C (second compound 1 µM, first compound 0.00316 µM): 111%; viability, T/C (second compound 1 µM, first compound 0.01 µM): 85.3%; viability, T/C [13]: 73.9%; viability, T/C [14]: 79.5%; viability, T/C [15]: 63.6%; viability, T/C [16]: 55.6%; viability, T/C (second compound 3.16 µM, first compound 0.00316 µM): 97.6%; viability, T/C (second compound 3.16 µM, first compound 0.01 µM): 84.1%; viability, T/C [17]: 81.9%; viability, T/C [18]: 72.3%; viability, T/C [19]: 72.9%; viability, T/C [20]: 59.9%; viability, T/C (second compound 10 µM, first compound 0.00316 µM): 96.4%; viability, T/C (second compound 10 µM, first compound 0.01 µM): 73.2%; viability, T/C [21]: 68.7%; viability, T/C [22]: 71.1%; viability, T/C [23]: 61.9%; viability, T/C [24]: 61.5%
